Source: patent US20150079673A1, “HEPATOCYTES IN CO-CULTURE AND USES THEREOF” (Colorado State University Research Foundation, priority 2013, published 2015)

Legend:
Format in all cases: cell-based
[1] = system: human hepatocytes maintained in micropatterned co-culture with 3T3-J2 murine embryonic fibroblasts; assay: Gluconeogenesis (glucose production) in glycogen-depleted MPCC; settings: at 24 hours, following a varying dose of metformin; FIG. 9B
Method: To test for gluconeogenesis in diabetic hepatocytes in co-culture, the MPCC hepatocyte cultures comprising diabetic versus non-diabetic cells were subjected to glucose-free medium for 24-48 hours, thereby depleting the resident glycogen stores so that cells were only able to perform gluconeogenesis in the presence of the glucose precursors lactate and pyruvate. Gluconeogenesis rate was measured by incubating glycogen-depleted cultures with the substrates pyruvate and lactate, in glucose-free medium and glucose measurement in medium (Amplex Red) at 24 hours, thereby isolating the contribution of gluconeogenesis to glucose production, from potential residual glucose output due to glycogen depletion.
Cells were also tested under the glycogen depletion conditions as described above, for the effect of hormones on glucose production. The MPCCs were subjected to glycogen depletion for 12 hours, followed by stimulation of gluconeogenesis using lactate or pyruvate, in the presence or absence of insulin, glucagon or dexamethasone. Released glucose was measured 24 hours later.

[2] = system: human hepatocytes maintained in micropatterned co-culture with 3T3-J2 murine embryonic fibroblasts; assay: Glycogen synthesis in MPCC, PAS stain of intracellular glycogen; settings: glycogen-depleted, 5 mM glucose + 100 nm hormone, 24 hours after treatment; FIG. 11B
Method: (§1) Glycogen lysis and glycogen synthesis in MPCC hepatocytes was also studied. The rate of glycogen lysis in MPCCs was measured by incubating cultures with glucose-free/hormone-free medium for 48 hours (fasting), followed by fixation of cultures using 4% paraformaldehyde and staining of intracellular glycogen (periodic acid Schiff stain (“PAS stain”)). The rate of glycogen synthesis was measured by first depleting glycogen stores as described above, followed by addition of glucose to medium (feeding) and staining of glycogen at specific time-points. Results at 24 hours are shown in FIGS. 11A-B. FIG. 11A is a panel of four photomicrographs of human hepatocytes maintained in micropatterned co-culture with 3T3-J2 murine embryonic fibroblasts, indicating glycogenolysis in the cells under four conditions: 25 mM glucose, glucose free, glucose free+100 nm glucagon, and glucose free+100 nm insulin, 24 hrs after treatment. […] MPCCs were cultured in glucose free media for 2 days and depleted of all glycogen prior to the addition of 5 mM glucose. […]

[3] = system: human hepatocytes maintained in micropatterned co-culture with 3T3-J2 murine embryonic fibroblasts; assay: Glycogen lysis in MPCC, PAS stain of intracellular glycogen; settings: glucose free medium + 100 nm hormone, 24 hrs after treatment; FIG. 11A
Method: as §1

Row | Compound | glucose production (gluconeogenesis) [1] | glycogen synthesis (intracellular glycogen, PAS stain) [2] | glycogenolysis (intracellular glycogen, PAS stain) [3]
1 | CN(C)C(=N)N=C(N)N [metformin] | dose-dependent blockage | – | –
2 | glucagon | – | did not synthesize glycogen | at a higher rate when stimulated by glucagon
3 | insulin | – | at a higher rate when stimulated by insulin | continued storing glycogen
